ChEMBL document CHEMBL3244209, “Tripeptide analogues of melanocyte-stimulating hormone release-inhibiting hormone (Pro-Leu-Gly-NH2) as inhibitors of oxotremorine-induced tremor” (1979)
The source made the active and inactive calls. No cut-off for these calls is given here. Square brackets hold non-standard residues; d marks the D form. Peptide text beside a SMILES is read from it. * marks the point of attachment. pGlu = O=C1CC[C@@H](C(=O)O)N1; NHtBu = CC(C)(C)N*; NHiPr = CC(C)N*; NHPr = CCCN*; For = O=C*

Tested on: Mus musculus
Experiment: Inhibition of oxotremorine-induced tremor in ip dosed NMRI mouse administered 1 hr prior to oxotremorine challenge
Assay type: functional

How did the Activity turn out when `CC(C)C[C@H](NC(=O)[C@@H]1CCCN1)C(=O)NCC(N)=O` (H-Pro-Leu-Gly-NH2) was run?
The Activity was 3.6 mg/kg.

With `CCNC(=O)CNC(=O)[C@H](CC(C)C)NC(=O)[C@@H]1CCC(=O)N1` ([pGlu]-Leu-Gly-NHEt) as the molecule, how does the Activity read?
Its Activity is 7.8 mg/kg.

With `CCCNC(=O)CNC(=O)[C@H](CC(C)C)NC(=O)[C@@H]1CCC(=O)N1` ([pGlu]-Leu-Gly-NHPr) as the molecule, how does the Activity read?
The Activity was 10 mg/kg.

With `CC(C)C[C@H](NC(=O)[C@@H]1CCC(=O)N1)C(=O)NCC(=O)NC(C)C` ([pGlu]-Leu-Gly-NHiPr) as the molecule, how does the Activity read?
The Activity was 2.9 mg/kg.

For `CC(C)C[C@H](NC(=O)[C@@H]1CCC(=O)N1)C(=O)NCC(=O)N(C)C` ([pGlu]-Leu-Gly-NMe2), which Activity is on record?
Its Activity is 1.3 mg/kg.

Tested on: Mus musculus
Experiment: Inhibition of oxotremorine-induced tremor in NMRI mouse at 0.13 to 16 mg/kg, ip administered 1 hr prior to oxotremorine challenge
Assay type: functional, organism-based

With `C#CCNC(=O)CNC(=O)[C@H](CC(C)C)NC(=O)[C@@H]1CCC(=O)N1` as the molecule, how does the inhibition read?
The inhibition was “inactive”.

For `CC(C)C[C@@H]1NC(=O)[C@@H]2CCCN2C1=O`, which inhibition is on record?
Its inhibition is “inactive”.

How did the inhibition turn out when `CC(C)C[C@H](NC(=O)C1CCCC1)C(=O)NCC(N)=O` was run?
Its inhibition is “inactive”.

With `CCN(C)C(=O)CNC(=O)[C@H](CC(C)C)NC(=O)[C@@H]1CCC(=O)N1` as the molecule, how does the inhibition read?
Its inhibition is “inactive”.

With `CCNC(=O)CNC(=O)[C@H](CC(C)C)NC(=O)C1CCCC1` as the molecule, how does the inhibition read?
Its inhibition is “inactive”.

`CC(C)C[C@H](NC(=O)[C@@H]1CCCN1C=O)C(=O)NCC(N)=O` (For-Pro-Leu-Gly-NH2) was tested. Which inhibition did it give?
Its inhibition is “inactive”.

`CCNC(=O)CNC(=O)[C@H](CC(C)C)NC(=O)[C@@H]1CCCN1C=O` (For-Pro-Leu-Gly-NHEt) was tested. Which inhibition did it give?
Its inhibition is “inactive”.

Which inhibition does the source give for `N=C(N)NCCC[C@H](NC(=O)[C@@H]1CCCN1)C(=O)NCC(N)=O` (H-Pro-Arg-Gly-NH2) here?
The inhibition was “inactive”.

Which inhibition does the source give for `NCCCC[C@H](NC(=O)[C@@H]1CCCN1)C(=O)NCC(N)=O` (H-Pro-Lys-Gly-NH2) here?
Its inhibition is “inactive”.

How did the inhibition turn out when `CNC(=O)CNC(=O)[C@H](CC(C)C)NC(=O)[C@@H]1CCC(=O)N1` ([pGlu]-Leu-Gly-NHMe) was run?
Its inhibition is “inactive”.

Which inhibition does the source give for `CC(C)C[C@H](NC(=O)[C@@H]1CCC(=O)N1)C(=O)NCC(=O)NC(C)(C)C` ([pGlu]-Leu-Gly-NHtBu) here?
The inhibition was “inactive”.
